The NIST ThermoML archive (doi:10.1016/j.jct.2009.03.014)
Where “and” joins values, the source holds several entries; their conditions need not be identical. Equal values may be shown once.

Experiments:
[1] = Crystal, Calculated from knudsen effusion weight loss
[2] = molar enthalpy of vaporization or sublimation; conditions: 298.15 K, Crystal

O=[N+]([O-])c1c(Cl)cc(Cl)cc1Cl [1,3,5-trichloro-2-nitrobenzene]
Conditions | molar enthalpy, Drop-Microcalorimetry [kcal/mol] | vapor or sublimation pressure, 287.13 K | vapor or sublimation pressure, 289.15 K | vapor or sublimation pressure, 291.14 K | vapor or sublimation pressure, 293.13 K | vapor or sublimation pressure, 295.15 K | vapor or sublimation pressure, 297.15 K | vapor or sublimation pressure, 299.14 K | vapor or sublimation pressure, 301.13 K | vapor or sublimation pressure, 303.14 K
[1] | – | 0.000143 kPa and 0.000137 kPa and 0.000136 kPa | 0.000183 kPa and 0.000176 kPa and 0.000174 kPa | 0.000231 kPa and 0.000224 kPa and 0.000217 kPa | 0.000295 kPa and 0.000293 kPa and 0.000301 kPa | 0.000387 kPa and 0.000371 kPa and 0.000369 kPa | 0.000487 kPa and 0.000435 kPa and 0.000445 kPa | 0.000651 kPa and 0.000582 kPa and 0.000577 kPa | 0.0008 kPa and 0.000723 kPa and 0.000725 kPa | 0.000992 kPa and 0.000924 kPa and 0.000927 kPa
[2] | 20.1 | – | – | – | – | – | – | – | – | –

O=[N+]([O-])c1c(Cl)c(Cl)cc(Cl)c1Cl [2,3,5,6-tetrachloronitrobenzene]
Conditions | molar enthalpy [kcal/mol]
[2], Drop Microcalorimetry | 21.8

O=[N+]([O-])c1c(Cl)c(Cl)c(Cl)c(Cl)c1Cl [pentachloronitrobenzene]
Conditions | molar enthalpy [kcal/mol] | vapor or sublimation pressure
[1], 317.11 K | – | 0.000102 kPa and 0.000101 kPa
[1], 319.18 K | – | 0.000129 kPa and 0.000127 kPa and 0.000124 kPa
[1], 321.2 K | – | 0.00015 kPa and 0.000155 kPa and 0.000154 kPa
[1], 323.11 K | – | 0.000197 kPa and 0.000196 kPa and 0.000199 kPa
[1], 325.18 K | – | 0.000246 kPa and 0.000245 kPa and 0.000241 kPa
[1], 327.2 K | – | 0.000289 kPa and 0.000296 kPa and 0.000292 kPa
[1], 329.11 K | – | 0.000372 kPa and 0.000367 kPa and 0.000366 kPa
[1], 331.17 K | – | 0.000462 kPa and 0.000453 kPa and 0.000447 kPa
[1], 333.2 K | – | 0.000531 kPa and 0.000549 kPa and 0.00054 kPa
[1], 335.11 K | – | 0.000692 kPa and 0.000673 kPa and 0.000671 kPa
[1], 337.18 K | – | 0.000844 kPa and 0.000833 kPa and 0.000818 kPa
[1], 339.2 K | – | 0.000971 kPa and 0.001009 kPa and 0.000993 kPa
[2], Drop Microcalorimetry | 23 | –
